Where a name gives a salt, the structure may show the parent alone.

The target of test [1] is PDE 7 (phosphodiesterase VII) (Homo sapiens (Human), UniProt Q13946). Description: PDE 7 inhibiting effect (3H-cAMP hydrolysis, PDE 7 active fraction from MOLT-4 cells). In kind it is biochemical. The note with it: PDE 7 fraction from MOLT-4 cells, 0.064 μM cAMP, 10 μM rolipram, 2 hours at 25° C.; read-out: PDE7 IC50. On the procedure:
Methods for Evaluating the PDE 7 Inhibiting Effect
The PDE 7 (phosphodiesterase VII) inhibiting effect of the compounds of the present invention was performed by the following method, which was modified assay method described in Biochemical. Pharmacol. 48(6), 1219-1223 (1994). • (1) The active fraction of PDE 7 (phosphodiesterase VII) was obtained. That is, MOLT-4 (obtainable from ATCC as ATCC No. CRL-1582), which was cell line of human acute lymphoblastic lymphoma T cells, was incubated in RPMI1640 culture medium containing 10% fetal bovine serum to obtain 5×10^8 MOLT-4 cells. The cells were collected by centrifugation and suspended with 10 mL of buffer solution A [25 mM of tris-HCl, 5 mM of 2-mercaptoethanol, 2 mM of benzamidine, 2 mM of EDTA, 0.1 mM of 4-(2-aminoethyl)benzenesulfonyl hydrochloride; pH 7.5], then homogenized by Polytron® homogenizer. The homogenate were centrifuged under 25,000×G for 10 minutes at 4° C. The supernatant was separated and thus obtained supernatant was further centrifuged under 100,000×G for 60 minutes at 4° C., and then filtrated with 0.2 μm filter to obtain the soluble fraction. • (2) The obtained soluble fraction was filled in equilibrium HiTrap Q column (5 mL×2) with buffer solution A, and phosphodiesterase fractions were eluted by 300 mL of buffer solution A with linear gradient from 0 to 0.8 M NaCl concentration. 5 mL each of 60 eluents were collected, and each eluents were examined for cyclic AMP metabolic activities of phosphodiesterase. […] After the reaction, suspension of Sephadex®-QAE in 10 mM of HEPES-Na (pH 7.0) was added to the reaction mixture, and the mixture was left at rest for 5 minutes.

For test [2], the target named is PDE 4 (phosphodiesterase IV). Description: PDE 4 inhibiting effect (3H-cAMP hydrolysis, PDE 4 active fraction from Balb/c mouse liver). Format: biochemical. The note with it: PDE 4 fraction from Balb/c mice liver, 0.064 μM cAMP, 2 hours at 25° C.; read-out: PDE4 IC50. On the procedure: Methods for Evaluating the PDE 4 Inhibiting Effect
The PDE 4 (phosphodiesterase IV) inhibiting effect of the compounds of the present invention was performed by the following method, which was modified assay method described in Biochemical. […] That is, the livers obtained from three Balb/c mice (male, 12 weeks: obtainable from CLEA Japan, Inc.) were suspended with 30 mL of buffer solution B [20 mM of bis-tris, 5 mM of 2-mercaptoethanol, 2 mM of benzamidine, 2 mM of EDTA, 0.1 mM of 4-(2-aminoethyl)benzenesulfonyl hydrochloride, 50 mM of sodium acetate; pH 6.5], then homogenized by Polytron® homogenizer. The homogenate were centrifuged under 25,000×G for 10 minutes at 4° C. The supernatant was separated and thus obtained supernatant was further centrifuged under 100,000×G for 60 minutes at 4° C., and then filtrated with 0.2 μm filter to obtain the soluble fraction. • (2) The obtained soluble fraction was filled in equilibrium DEAE sepharose column (1×10 cm) with buffer solution B, and phosphodiesterase fractions were eluted by 120 mL of buffer solution B with linear gradient from 0.05 to 1M sodium acetate concentration. 5 mL each of 24 eluents were collected, and each eluents were examined for cyclic AMP metabolic activities of phosphodiesterase. […] After the reaction, suspension of Sephadex®-QAE in 10 mM of HEPES-Na (pH 7.0) was added to the reaction mixture, and the mixture was left at rest for 5 minutes.

PDE 7 (phosphodiesterase VII), sequence (Q13946 whole entry): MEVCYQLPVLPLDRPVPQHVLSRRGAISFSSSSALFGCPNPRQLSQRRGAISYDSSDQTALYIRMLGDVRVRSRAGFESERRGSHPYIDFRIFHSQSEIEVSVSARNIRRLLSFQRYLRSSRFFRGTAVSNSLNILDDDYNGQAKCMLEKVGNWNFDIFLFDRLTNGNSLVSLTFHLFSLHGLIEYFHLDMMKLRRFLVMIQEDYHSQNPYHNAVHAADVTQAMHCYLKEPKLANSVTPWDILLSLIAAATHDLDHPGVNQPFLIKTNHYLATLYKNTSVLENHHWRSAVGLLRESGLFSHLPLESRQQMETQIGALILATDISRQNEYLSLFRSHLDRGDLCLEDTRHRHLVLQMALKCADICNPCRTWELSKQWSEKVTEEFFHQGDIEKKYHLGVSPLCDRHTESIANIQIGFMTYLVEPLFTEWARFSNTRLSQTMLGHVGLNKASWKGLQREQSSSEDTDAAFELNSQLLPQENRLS

Consider `Cc1nn(C2CCCCC2)c2sc(C(=O)N[C@H]3CC[C@H](N4CCC(N(C)C)CC4)CC3)cc12` [Example 181, 1-Cyclohexyl-N-{trans-4-[4-(dimethylamino)-1-piperidinyl]-cyclohexyl}-3-methyl-1H-thieno[2,3-c]pyrazole-5-carboxamide], for which the IC50 stood at 0.0086 µM in test [1] and 0.86 µM in test [2].

For the molecule `Cc1nn(C2CCCCC2)c2sc(C(=O)N[C@H]3CC[C@H](N4CCCS4(=O)=O)CC3)cc12` [Example 274, 1-Cyclohexyl-N-[trans-(1,1-dioxide-2-isothiazolidinyl)cyclohexyl]-3-methyl-1H-thieno[2,3-c]pyrazole-5-carboxamide], the IC50 in test [1] was determined as 0.0099 µM; in test [2] it was 1.7 µM.

Consider `Cc1nn(C2CCCCC2)c2sc(C(=O)Nc3ccc(CO)nc3)cc12` [Example 404, 1-Cyclohexyl-N-[6-(hydroxymethyl)-3-pyridinyl]-3-methyl-1H-thieno[2,3-c]pyrazole-5-carboxamide], for which the IC50 in test [1] is 0.032 µM; in test [2] it was 3.5 µM.

Turning to `CCOC(=O)c1ccc(NC(=O)c2cc3c(C)nn(C4CCCCC4)c3s2)cc1` [Example 40, Ethyl 4-{[(1-cyclohexyl-3-methyl-1H-thieno[2,3-c]pyrazol-5-yl)-carbonyl]amino}benzoate], the results for the IC50 in test [1] and in test [2] were 0.075 µM and 15 µM, respectively.

For the molecule `Cc1nn(C2CCCCC2)c2sc(C(=O)N[C@H]3CC[C@H](C(=O)O)C3)cc12` [Example 227, (1S,3S)-3-{[(1-Cyclohexyl-3-methyl-1H-thieno[2,3-c]pyrazol-5-yl)-carbonyl]amino}cyclopentanecarboxylic acid], the half-maximal inhibitory concentration (IC50) amounted to 0.056 µM in test [1] and 10 µM in test [2].

As for `Cc1nn(C2CCCCC2)c2sc(C(=O)Nc3ccc(N4CCC(O)CC4)c(F)c3F)cc12` [Example 371, 1-Cyclohexyl-N-[2,3-difluoro-4-(4-hydroxy-1-piperidinyl)phenyl]-3-methyl-1H-thieno[2,3-c]pyrazole-5-carboxamide], the IC50 in test [1] amounted to 0.017 µM; in test [2] it was 3.6 µM.

On to `Cc1nn(C2CCCCC2)c2sc(C(=O)N[C@H]3CC[C@H](O)CC3)cc12` [Example 74, 1-Cyclohexyl-N-(trans-hydroxycyclohexyl)-3-methyl-1H-thieno[2,3-c]pyrazole-5-carboxamide], for which the IC50 in test [1] worked out at 0.05 µM; in test [2] it was 7 µM.

Take `Cc1nn(C2CCCCC2)c2sc(C(=O)NCC(C)(C)CN3C(=O)CNC3=O)cc12` [Example 339, 1-Cyclohexyl-N-[3-(2,5-dioxo-1-imidazolidinyl)-2,2-dimethylpropyl]-3-methyl-1H-thieno[2,3-c]pyrazole-5-carboxamide]: the values for the IC50 in test [1] and in test [2] were 0.02 µM and 5.1 µM, respectively.

Turning to `Cc1nn(C2CCCCC2)c2sc(C(=O)Nc3ccc(NC=O)cc3)cc12` [Example 53, 1-Cyclohexyl-N-[4-(formylamino)phenyl]-3-methyl-1H-thieno[2,3-c]pyrazole-5-carboxamide], the concentration for half-maximal inhibition (IC50) was found to be 0.055 µM in test [1] and 3.5 µM in test [2].

As for `Cc1nn(C2CCCCC2)c2sc(C(=O)Nc3ccc(CN4CCOCC4)cc3)cc12` [Example 199, 1-Cyclohexyl-3-methyl-N-[4-(4-morpholinylmethyl)phenyl]-1H-thieno[2,3-c]pyrazole-5-carboxamide fumarate], the values for the IC50 in test [1] and in test [2] were 0.056 µM and 5.8 µM, respectively.

As to `CC(=O)Nc1ccc(NC(=O)c2cc3c(C)nn(C4CCCCC4)c3s2)cc1` [Example 100, N-[4-(Acetylamino)phenyl]-1-cyclohexyl-3-methyl-1H-thieno[2,3-c]pyrazole-5-carboxamide], the IC50 in test [1] is 0.037 µM; in test [2], greater than 30 µM.

Consider `Cc1nn(C2CCCCC2)c2sc(C(=O)NCCN3CCN(C)C(=O)C3=O)cc12` [Example 228, 1-Cyclohexyl-3-methyl-N-[2-(4-methyl-2,3-dioxo-1-piperazinyl)ethyl]-1H-thieno[2,3-c]pyrazole-5-carboxamide], for which the concentration for half-maximal inhibition (IC50) amounted to 0.051 µM in test [1] and 5.8 µM in test [2].

Consider `Cc1nn(C2CCCCC2)c2sc(C(=O)N[C@H]3C[C@@H]3CO)cc12` (racemic) [Example 340, (±)-1-Cyclohexyl-N-[trans-2-(hydroxymethyl)cyclopropyl]-3-methyl-1H-thieno[2,3-c]pyrazole-5-carboxamide], for which the IC50 is 0.054 µM in test [1] and 28 µM in test [2].

Regarding `CC(=O)N1CCCN([C@H]2CC[C@H](NC(=O)c3cc4c(C)nn(C5CCCCC5)c4s3)CC2)CC1` [Example 171, N-[trans-4-(4-Acetyl-1,4-diazepam-1-yl)cyclohexyl]-1-cyclohexyl-3-methyl-1H-thieno[2,3-c]pyrazole-5-carboxamide], the IC50 in test [1] was determined as 0.037 µM; in test [2], 1.7 µM.

Turning to `Cc1nn(C2CCCCC2)c2sc(C(=O)N[C@H]3CC[C@H](C(=O)O)CC3)cc12` [Example 205, 4-{[(1-Cyclohexyl-3-methyl-1H-thieno[2,3-c]pyrazol-5-yl)carbonyl]-amino}cyclohexane carboxylic acid], the IC50 came out at 0.091 µM in test [1] and 14 µM in test [2].

For the molecule `Cc1nn(C2CCCCC2)c2sc(C(=O)Nc3ccc(C4CCN(C)CC4)cc3)cc12` [Example 142, 1-Cyclohexyl-3-methyl-N-[4(1-methyl-4-piperidinyl)phenyl]-1H-thieno[2,3-c]pyrazole-5-carboxamide], the IC50 in test [1] was 0.014 µM; in test [2] it was 2 µM.

On to `Cc1nn(C2CCCCC2)c2sc(C(=O)N[C@H]3CC[C@H](C#N)CC3)cc12` [Example 209, N-(4-Cyanocyclohexyl)-1-cyclohexyl-3-methyl-1H-thieno[2,3-c]-pyrazole-5-carboxamide], for which the figures for the IC50 in test [1] and in test [2] were 0.077 µM and 7.4 µM, respectively.

In the case of `Cc1nn(C2CCOCC2)c2sc(C(=O)Nc3ccc(N4C(=O)CN(C)C4=O)cc3)cc12` [Example 260, 3-Methyl N-[4-(3-methyl-2,5-dioxo-1-imidazolidinyl)phenyl]-1-tetrahydro-2H-pyran-4-yl-1H-thieno[2,3-c]pyrazole-5-carboxamide], the IC50 in test [1] stood at 0.037 µM; in test [2], 4.5 µM.

In the case of `Cc1nn(C2CCOCC2)c2sc(C(=O)N[C@H]3CC[C@H](N4CCN(C)CC4=O)CC3)cc12` [Example 415, 3-Methyl-N-[trans-4-(4-methyl-2-oxo-piperazinyl)cyclohexyl]-1-tetrahydro-2H-pyran-4-yl-1H-thieno[2,3-c]pyrazole-5-carboxamide], the IC50 was 0.093 µM in test [1] and 5.1 µM in test [2].

As for `Cc1nn(C2CCCCC2)c2sc(C(=O)N[C@H]3CC[C@H](N4C[C@@H](C)O[C@@H](C)C4)CC3)cc12` [Example 177, 1-Cyclohexyl-N-{trans-4-[(2R,6S)-2,6-dimethylmorpholinyl]-cyclohexyl}-3-methyl-1H-thieno[2,3-c]pyrazole-5-carboxamide], the results for the IC50 in test [1] and in test [2] were 0.013 µM and 1.6 µM, respectively.

As to `Cc1nn(C2CCCCC2)c2sc(C(=O)N[C@H]3CC[C@H](N4CCCN(C)CC4)CC3)cc12` [Example 167, 1-Cyclohexyl-3-methyl-N-[trans-4-(4-methyl-1,4-diazepam-1-yl)-cyclohexyl]-1H-thieno[2,3-c]pyrazole-5-carboxamide], the IC50 in test [1] came out at 0.015 µM; in test [2], 1 µM.

In the case of `Cc1nn(C2CCCCC2)c2sc(C(=O)Nc3ccc(C(=O)NCCN(C)C)nc3)cc12` [Example 381], the IC50 was 0.022 µM in test [1] and 0.67 µM in test [2].

(Values after US8901315B2, “Thienopyrazole derivative having PDE7 inhibitory activity” (Daiichi Sankyo Company, Limited, priority 2004, dated 2014).)
